From PubChem BioAssay (NCI)
Where “and” joins values, the source holds several entries; their conditions need not be identical. Equal values may be shown once.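 All cell lines were grown in 96-well plates and treated with compound for 48 hours. GI50 is the concentration that inhibits growth by half. At the TGI there is no net growth.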

How the values were obtained:
Assay in all cases: growth of human tumour cells (NCI), 48 h
[1] = test system: SNB-19 CNS
[2] = test system: CAKI-1 renal
[3] = test system: UO-31 renal
[4] = test system: KM12 colon
[5] = test system: OVCAR-5 ovarian
[6] = test system: UACC-62 melanoma
[7] = test system: RXF 393 renal
[8] = test system: MDA-MB-231 breast
[9] = test system: SNB-75 CNS
[10] = test system: ACHN renal

SMILES	GI50 [1]	TGI [1]	GI50 [2]	TGI [2]	GI50 [3]	TGI [3]	GI50 [4]	TGI [4]	GI50 [5]	TGI [5]	GI50 [6]	TGI [6]	GI50 [7]	TGI [7]	GI50 [8]	TGI [8]	GI50 [9]	TGI [9]	GI50 [10]	TGI [10]
Cc1cc(C)nc(NC(N)=NCCc2ccccc2)n1	4.55 µM	> 100 µM	19.4 µM	97.5 µM	5.54 µM	50.8 µM	3.62 µM	> 100 µM	9.81 µM	> 100 µM	2.97 µM	21.4 µM	7.22 µM	77.2 µM	6.55 µM	52.8 µM	2.08 µM	9.75 µM	4.94 µM	> 100 µM
O=C(c1ccccc1)c1c(NCC(O)CN2CCCC2)n(Cc2ccccc2)c(=O)n(Cc2ccccc2)c1=O (stereo not drawn)	63.4 µM	> 100 µM	24.3 µM	59 µM	18.8 µM	40.2 µM	15.8 µM	31.7 µM	29.7 µM	82 µM	17.4 µM	33.2 µM	21.6 µM	53.3 µM	15.3 µM	29.6 µM	16.9 µM	47.3 µM	22.3 µM	54.7 µM
CCSc1nnc2c(-c3ccccc3)n[nH]c2n1		> 100 µM		> 100 µM		> 100 µM		> 100 µM		> 100 µM		> 100 µM		> 100 µM		> 100 µM		> 100 µM		> 100 µM
COc1cccc([C@H]2CC(=O)c3cc4c(cc3N2)OCO4)c1		1.81 µM	0.151 µM	> 100 µM	0.223 µM	> 100 µM	0.0336 µM	1.25 µM	13.7 µM		0.0226 µM	0.0965 µM		0.713 µM	0.716 µM	> 100 µM		> 100 µM	0.0763 µM	> 100 µM
CC(C)[C@](O)(c1ccc2cc(OC(F)F)c(OC(F)F)cc2c1)c1cn[nH]n1	22 µM and 15.7 µM	51 µM and 41.8 µM	13 µM and 10.2 µM	37 µM and 34.5 µM	12.8 µM and 12.1 µM	29.1 µM and 30.1 µM	20.3 µM and 15.2 µM	41.7 µM and 31.2 µM	21.7 µM and 22.9 µM	65.1 µM and 64.9 µM	20.1 µM and 13 µM	39.6 µM and 29.8 µM	15 µM and 14.4 µM	29.1 µM and 28.3 µM	20.5 µM and 12.3 µM	38.9 µM and 28.6 µM	11.8 µM and 9.7 µM	36.1 µM and 27.1 µM	25.7 µM and 19.3 µM	93.3 µM and 54 µM
COc1ccc(-c2[nH]ncc2-c2cc3c(c(OC)c2)OCC(=O)N3)cc1	0.619 µM	> 100 µM	0.556 µM	> 63.3 µM	1.44 µM	53.8 µM	0.36 µM	32.8 µM	2.17 µM	> 100 µM	0.621 µM	20.8 µM	0.392 µM	2.55 µM	1.21 µM	> 100 µM	0.196 µM	0.797 µM	0.85 µM	> 100 µM
O=S(=O)(Nc1ncccn1)c1ccc(N=Nc2ccc(O)c3ncccc23)cc1	6.83 µM	> 100 µM	3.82 µM	21 µM	1.94 µM	12.4 µM	5.87 µM	29.8 µM	29.7 µM	89.2 µM	3.4 µM	14 µM	9.95 µM	29.2 µM	15.9 µM	97.1 µM	2.01 µM	11 µM	5.18 µM	24.4 µM
Cc1ccccc1NC(=S)Nc1ccccn1	> 100 µM	> 100 µM	> 100 µM	> 100 µM	> 100 µM	> 100 µM	> 100 µM	> 100 µM	> 100 µM	> 100 µM	> 100 µM	> 100 µM	13.9 µM	> 100 µM	89.7 µM	> 100 µM	> 100 µM	> 100 µM	> 100 µM	> 100 µM
COC1=CC(c2ccc[nH]2)=N/C1=C\c1[nH]c(C)c(C(=O)OCc2ccccc2)c1C	0.606 µM	29.2 µM	0.0483 µM	1.76 µM	0.144 µM	0.336 µM	0.0525 µM	1.52 µM	0.211 µM	1.99 µM	0.0579 µM	0.193 µM	0.116 µM	1.41 µM	0.0379 µM	0.325 µM	0.127 µM	0.632 µM	0.081 µM	1.15 µM
C[n+]1c(/C=C\C=C\N2CCCCC2)sc2ccccc21	0.538 µM	17.2 µM	4.8 µM	28.9 µM	13.5 µM	> 71.3 µM	0.27 µM	3.02 µM	5.2 µM	> 35.2 µM	0.691 µM	12.4 µM	3.48 µM	17.6 µM	1.01 µM	25.6 µM	3.93 µM	17 µM	4.07 µM	> 53.4 µM
CC1=NN(C(=O)c2ccccc2O)C(=O)/C1=C/c1ccc([N+](=O)[O-])cc1	0.464 µM	> 100 µM	0.549 µM	> 30.8 µM	0.358 µM	1.88 µM	0.779 µM	> 100 µM	2.62 µM	> 100 µM		2.16 µM	0.263 µM			> 100 µM	0.0532 µM	> 100 µM	0.545 µM	> 100 µM
COc1cccc(C2CC(c3cc(OC)c(OC)c(OC)c3)=NN2)c1 (stereo not drawn)	16.8 µM	> 100 µM	14.7 µM	50.5 µM	14.4 µM	38.8 µM	5.02 µM	20.4 µM	18.4 µM	66.1 µM	20.6 µM	> 100 µM	8.75 µM	34 µM	26.2 µM	> 100 µM	15.6 µM	> 100 µM	21.7 µM	53 µM
